Experimental data from US10537558B2 (Bantam Pharmaceutical, LLC, priority 2015, dated 2020).

The compounds below were run on BJAB cells (assay: BJAB cell proliferation (Cell Titer Glo)). Settings: Homo sapiens, read-out: EC50.
Format: cell-based
Experimental: Cells were seeded in white Corning Costar 96-well assay plates at 2500 cells/well in 50 μL of medium. Serial dilutions of test compounds were made in cell culture medium/FBS+0.2% DMSO, and transferred to assay plates in a volume of 50 μL (DMSO at 0.1% final). Plates were maintained at 37° C. for approximately 72 hours. The effect of compounds on cell proliferation was evaluated using the Cell Titer Glo reagent (Promega), according to the manufacturer's instructions. Briefly, 100 μL of reagent was added per well, and after a 10 minute incubation luminescence values were determined on a plate reader (Tecan F200PRO). The percent of luminescence signal relative to untreated controls was calculated for each compound concentration, and EC50 values were determined from dose response data by non-linear regression analysis using Prism (GraphPad). The mTor inhibitor Torin1 (Liu, et al. (2010) J. Med. Chem. 53, 7146.) was used as a control. The data are summarized in the compound table provided above.
`Cc1nn(-c2nc(-c3ccc(Cl)c(Cl)c3)c(SC(C)C)s2)c(C(=O)O)c1-c1ccncc1` [Compound 47, 1-(4-(3,4-dichlorophenyl)-5-(isopropylthio)thiazol-2-yl)-3-methyl-4-(pyridin-4-yl)-1H-pyrazole-5-carboxylic Acid] showed an EC50 of 5 to 10 µM.
In the case of `Cc1nn(-c2nc(-c3ccc(Cl)c(Cl)c3)c(SC(C)C)s2)c(C(=O)O)c1-c1cnn(C(=O)N(C)C)c1` [Compound 135, 1-(4-(3,4-dichlorophenyl)-5-(isopropylthio)thiazol-2-yl)-1′-(dimethylcarbamoyl)-3-methyl-1H,1′H-[4,4′-bipyrazole]-5-carboxylic acid], the EC50 is reported as 25 to 50 µM.
`Cc1nn(-c2nc(-c3ccc(Cl)c(Cl)c3)c(SC(C)C)s2)c(C(=O)O)c1-c1cnsc1` [Compound 91, 1-(4-(3,4-dichlorophenyl)-5-(isopropylthio)thiazol-2-yl)-4-(isothiazol-4-yl)-3-methyl-1H-pyrazole-5-carboxylic acid] showed an EC50 of 5 to 10 µM.
With `CCSc1sc(-n2nc(C)c(Cc3ccccc3[N+](=O)[O-])c2C(=O)O)nc1-c1ccc(Cl)c(Cl)c1` [Compound 4, 1-(4-(3,4-dichlorophenyl)-5-(ethylthio)thiazol-2-yl)-3-methyl-4-(2-nitrobenzyl)-1H-pyrazole-5-carboxylic Acid] the EC50 was 50 to 100 µM.
`COCCNC(=O)c1ccc(-c2nc(-n3nc(C)c(-c4cccc(F)c4)c3C(=O)O)sc2SC(C)C)cc1` [Compound 220, 4-(3-fluorophenyl)-1-(5-(isopropylthio)-4-(4-((2-methoxyethyl)carbamoyl)phenyl)thiazol-2-yl)-3-methyl-1H-pyrazole-5-carboxylic Acid] was tested, and the EC50 was > 40 µM.
In the case of `Cc1nn(-c2nc(-c3ccc(Cl)c(Cl)c3)c(SC(C)C)s2)c(CO)c1-c1ccccc1` [Compound 88, (1-(4-(3,4-dichlorophenyl)-5-(isopropylthio)thiazol-2-yl)-3-methyl-4-phenyl-1H-pyrazol-5-yl)MeOH], the EC50 is reported as > 25 µM.
With `Cc1nn(-c2nc(-c3ccc(C(=O)N(C)C)cc3)c(SC(C)C)s2)c(C(=O)O)c1-c1cccc(F)c1` [Compound 221, 1-(4-(4-(dimethylcarbamoyl)phenyl)-5-(isopropylthio)thiazol-2-yl)-4-(3-fluorophenyl)-3-methyl-1H-pyrazole-5-carboxylic acid] the EC50 was > 40 µM.
For `CCCCSc1sc(-n2nc(C)c(Cc3ccccc3[N+](=O)[O-])c2C(=O)O)nc1-c1ccc(Cl)c(Cl)c1` [Compound 12, 1-(5-(butylthio)-4-(3,4-dichlorophenyl)thiazol-2-yl)-3-methyl-4-(2-nitrobenzyl)-1H-pyrazole-5-carboxylic Acid], the EC50 was > 80 µM.
With `Cc1nn(-c2nc(-c3ccc(Cl)c(Cl)c3)c(SC(C)C)s2)c(C(=O)O)c1-c1nc2ccccc2n1C` [Compound 68, 1-(4-(3,4-dichlorophenyl)-5-(isopropylthio)thiazol-2-yl)-3-methyl-4-(1-methy-1H-benzo[d]imidazol-2-yl)-1H-pyrazole-5-carboxylic acid] the EC50 was > 50 µM.
In the case of `Cc1cc(O)cc(-c2c(C)nn(-c3nc(-c4ccc(Cl)c(Cl)c4)c(SC(C)C)s3)c2C(=O)O)c1` [Compound 96, 1-(4-(3,4-dichlorophenyl)-5-(isopropylthio)thiazol-2-yl)-4-(3-hydroxy-5-methylphenyl)-3-methyl-1H-pyrazole-5-carboxylic acid], the EC50 is reported as > 25 µM.
Work on `Cc1nn(-c2nc(-c3ccc(Cl)c(Cl)c3)c(SC(C)C)s2)c(C(=O)O)c1-c1ncc[nH]1` [Compound 63, 1-(4-(3,4-dichlorophenyl)-5-(isopropylthio)thiazol-2-yl)-4-(1H-imidazol-2-yl)-3-methyl-1H-pyrazole-5-carboxylic acid] yielded an EC50 of 10 to 25 µM.
`Cc1nn(-c2nc(-c3ccc(Cl)c(Cl)c3)c(SC(C)C)s2)c(C(=O)O)c1-c1ccnc(F)c1` [Compound 21, 1-(4-(3,4-dichlorophenyl)-5-(isopropylthio)thiazol-2-yl)-4-(2-fluoropyridin-4-yl)-3-methyl-1H-pyrazole-5-carboxylic acid] was tested, and the EC50 was 5 to 10 µM.
`Cc1cc(-c2c(C)nn(-c3nc(C#Cc4ccccc4)c(SC(C)C)s3)c2C(=O)O)cc(C)n1` [Compound 162, 4-(2,6-dimethylpyridin-4-yl)-1-(5-(isopropylthio)-4-(phenylethynyl)thiazol-2-yl)-3-methyl-1H-pyrazole-5-carboxylic acid] was tested, and the EC50 was 5 to 10 µM.
For `Cc1nn(-c2nc(-c3ccc(C(F)(F)F)cc3)c(SC(C)C)s2)c(C(=O)O)c1-c1cccc(F)c1` [Compound 197, 4-(3-fluorophenyl)-1-(5-(isopropylthio)-4-(4-(trifluoromethyl)phenyl)thiazol-2-yl)-3-methyl-1H-pyrazole-5-carboxylic Acid], the EC50 was < 1 µM.
For `Cc1nn(-c2nc(-c3ccc(Cl)c(Cl)c3)c(SC(C)C)s2)c(C(=O)O)c1-c1cc(F)cc(OC2COC2)c1` [Compound 200, 1-(4-(3,4-dichlorophenyl)-5-(isopropylthio)thiazol-2-yl)-4-(3-fluoro-5-(oxetan-3-yloxy)phenyl)-3-methyl-1H-pyrazole-5-carboxylic Acid], the EC50 was 1 to 5 µM.
With `COC(=O)c1c(Cc2ccccc2[N+](=O)[O-])c(C)nn1-c1nc(-c2ccc(Cl)c(Cl)c2)c(SC(C)C)s1` [Compound 5, methyl 1-(4-(3,4-dichlorophenyl)-5-(isopropylthio)thiazol-2-yl)-3-methyl-4-(2-nitrobenzyl)-1H-pyrazole-5-carboxylate] the EC50 was > 80 µM.
`Cc1nn(-c2nc(-c3ccc(C(F)(F)F)cc3)c(SC(C)C)s2)c(C(=O)O)c1-c1ccc(F)cc1` [Compound 237, 4-(4-fluorophenyl)-1-(5-(isopropylthio)-4-(4-(trifluoromethyl)phenyl)thiazol-2-yl)-3-methyl-1H-pyrazole-5-carboxylic acid] showed an EC50 of 1 to 5 µM.
`Cc1nn(-c2nc(-c3ccc(Cl)c(Cl)c3)c(SC(C)C)s2)c(C(=O)O)c1-c1cc(C#N)cc(C(F)(F)F)c1` [Compound 84, 4-(3-cyano-5-(trifluoromethyl)phenyl)-1-(4-(3,4-dichlorophenyl)-5-(isopropylthio)thiazol-2-yl)-3-methyl-1H-pyrazole-5-carboxylic Acid] gave an EC50 of 1 to 5 µM.
`Cc1nn(-c2nc(-c3ccc(Cl)c(Cl)c3)c(SC(C)C)s2)c(C(=O)O)c1-c1ccc(N)cc1` [Compound 123, 4-(4-aminophenyl)-1-(4-(3,4-dichlorophenyl)-5-(isopropylthio)thiazol-2-yl)-3-methyl-1H-pyrazole-5-carboxylic acid] gave an EC50 of 25 to 50 µM.
`Cc1nn(-c2nc(-c3ccc(Cl)c(Cl)c3)c(SC(C)C)s2)c(C(=O)O)c1-c1cccc(C(F)(F)F)c1` [Compound 51, 1-(4-(3,4-dichlorophenyl)-5-(isopropylthio)thiazol-2-yl)-3-methyl-4-(3-(trifluoromethyl)phenyl)-1H-pyrazole-5-carboxylic Acid] showed an EC50 of 1 to 5 µM.
With `CCCS(=O)(=O)NC(=O)c1c(-c2cccc(F)c2)c(C)nn1-c1nc(-c2ccc(C(F)(F)F)cc2)c(SC(C)C)s1` [Compound 251, 4-(3-fluorophenyl)-1-(5-(isopropylthio)-4-(4-(trifluoromethyl)phenyl)thiazol-2-yl)-3-methyl-N-(propylsulfonyl)-1H-pyrazole-5-carboxamide] the EC50 was > 20 µM.
Work on `Cc1nn(-c2nc(-c3ccc(Cl)c(Cl)c3)c(SC(C)C)s2)c(C(=O)O)c1-c1cccnc1` [Compound 44, 1-(4-(3,4-dichlorophenyl)-5-(isopropylthio)thiazol-2-yl)-3-methyl-4-(pyridin-3-yl)-1H-pyrazole-5-carboxylic acid] yielded an EC50 of 10 to 25 µM.
